How the values were obtained:
[1] = Inhibition of amyloid beta (25 to 35 residues) (unknown origin) aggregate-induced toxicity in rat PC12 cells preincubated for 1 hr followed by amyloid beta challenge measured after 24 hrs by MTT assay
[2] = Inhibition of amyloid beta (1 to 42 residues) (unknown origin) aggregate-induced toxicity in rat PC12 cells assessed as cell viability at 4 to 100 ug/ml pre-incubated for 24 hrs with Abeta ( 1 to 42) followed by compound-Abeta (1 to 42) mixture addition to cells and measured after 24 hrs by MTT assay

SMILES | EC50 [1] [µM] | EC50 [2] [µM]
CC1(C)C=Cc2cc(C(=O)O)ccc2O1 | 252 | 
C[C@H]1CN2C[C@]34C[C@@]5(C(=O)Nc6c5ccc5c6C=CC(C)(C)O5)C(C)(C)[C@@H]3C[C@@]2(C1)C(=O)N4C | > 300 | 
CC(=O)O[C@H]1CC(=O)OC(C)(C)[C@@H]2CC[C@]3(C)[C@H](CC=C(C)[C@@]34C[C@]3(OC(C)=C(C)C3=O)C(=O)O4)[C@@]12C | 113 | 
C[C@@H]1C[C@@]23C[C@H]4C(C)(C)[C@@]5(C[C@]4(CN2C1=O)NC3=O)C(=O)Nc1c5ccc2c1OC=CC(C)(C)O2 | > 300 | 
CC1=CC[C@@H]2[C@@]3(C)[C@@H](O)CC(=O)OC(C)(C)[C@@H]3CC[C@@]2(C)[C@]12Cc1c(c(C)c(C)oc1=O)O2 | > 300 | 
C[C@@H]1C[C@@]23C[C@H]4C(C)(C)[C@@]5(C[C@]4(CN2C1=O)NC3=O)C(=O)Nc1c5ccc2c1C=CC(C)(C)O2 | > 300 | 97.9
CC1=CC[C@@H]2[C@@]3(C)C=CC(=O)OC(C)(C)[C@@H]3CC[C@@]2(C)[C@]12Cc1c(c(C)c(C)oc1=O)O2 | 65.4 | 
C[C@@H]1C[C@@]23C[C@H]4C(C)(C)[C@@]5(C[C@]4(CN2C1=O)N(C)C3=O)C(=O)Nc1c5ccc2c1C=CC(C)(C)O2 | > 300 | 
C[C@H]1CN2C[C@]34C[C@@]5(C(=O)Nc6c5ccc5c6OC=CC(C)(C)O5)C(C)(C)[C@@H]3C[C@@]2(C1)C(=O)N4C | > 300 | 105
O=C(/C=C/c1ccc(O)c(O)c1)O[C@H](Cc1ccc(O)c(O)c1)C(=O)O [Rosmarinic acid, 2] | 68.1 | 57.2
CN1C(=O)[C@@]23CCC(=O)N2C[C@@]12C[C@@]1(C(=O)Nc4c1ccc1c4C=CC(C)(C)O1)C(C)(C)[C@@H]2C3 | 150 | 89.9
